Measured values taken from US12427134B2, “Methods of reducing the risk of cardiovascular events in a subject with atrial fibrillation and/or atrial flutter” (priority 2019, dated 2025).

Test system: hypertriglyceridemic patients with cardiovascular disease or at high risk for cardiovascular disease
Experiment: REDUCE-IT: fasting lipid, lipoprotein and inflammatory biomarkers and serum EPA, change from baseline
Type: in vivo, human
Settings: for Approximated LDL-C (Hopkins), median difference from placebo in percent change from baseline: Hodges-Lehmann estimate
Method: Fasting Lipid Profile: The fasting lipid panel included: TG, TC, LDL-C, HDL-C, non-HDL-C, and VLDL-C. At all visits, LDL-C was calculated using the Friedewald equation. At Visit 1 and Visit 1.1 direct LDL-C were used if at the same visit TG >400 mg/dL (4.52 mmol/L). These LDL-C values were used for the evaluation of the LDL-C inclusion criterion (LDL-C qualifying measurements for randomization) and for the assessment of changes in the statin therapy when LDL-C was not at goal. […] In addition, irrespective of the TG levels, at Visit 2 (0 Months of Follow-up, baseline) and at Visit 4 (12 Months of Follow-up), LDL-C were measured by preparative ultracentrifugation. These preparative ultracentrifugation LDL-C measurements were used in the statistical analysis including the calculation of the percent change from baseline (1 year versus baseline). Hopkins LDL-C was calculated for each visit.
Biomarkers Assays: The biomarker assays included: hsCRP, Apo B and hsTnT.
The fasting lipid panel was tested at Screening (Visit 1 or Visit 1.1), Randomization visit (Visit 2; Day 0), Visit 3 (Day 120; ˜4 Months) and all other follow-up visits including the last visit. For change from baseline to 1 year preparative ultracentrifugation measurements for LDL-C were analyzed, unless this value was missing. If the LDL-C preparative ultracentrifugation values were missing, then another LDL-C value was used, with prioritization of values obtained from LDL-C Direct measurements, followed by LDL-C derived by the Friedewald calculation (only for subjects with TG <400 mg/dL), and finally LDL-C derived using the calculation published by Hopkins University investigators (Martin S S, Blaha M J, Elshazly M B, et al. Comparison of a novel method vs the Friedewald equation for estimating low-density lipoprotein cholesterol levels from the standard lipid profile. JAMA. 2013; 310:2061-8.). In addition, change from baseline to day 120 in LDL-C utilizing Friedewald's and Hopkins methods was analyzed, using the arithmetic mean of LDL-C obtained at Visit 2 (Day 0) and the preceding Visit 1 (or Visit 1.1). If one of these values was missing, the single available LDL-C value was used. LDL-C according to Hopkins was calculated at each visit.
The randomization visit was considered Baseline. If a baseline value was not available from the randomization visit, then the latest screening value was used. For measurements of lipids, lipoproteins and inflammatory markers, the change and the percent change were summarized at each visit. Since these biomarkers are typically not normally distributed, the Wilcoxon rank-sum test was used for treatment comparisons of the percent change from baseline, and medians and quartiles were provided for each treatment group. The medians of the differences between the treatment groups and 95% CIs were estimated with the Hodges-Lehmann method. In addition, shift-tables were generated as appropriate.

[1] = Last Visit, vs placebo, ITT population
[2] = baseline to the last study value

SMILES: CC/C=C\C/C=C\C/C=C\C/C=C\C/C=C\CCCC(=O)OCC [AMR101, eicosapentaenoic acid ethyl ester]
- Apo B Median Observed Value (Baseline, ITT population): 82.0 mg/dL
- LDL-C Hopkins Median Observed Value (Baseline, ITT population): 85.8 mg/dL
- LDL-C derived Median Observed Value (Baseline, ITT population): 74.0
- Non-HDL-C Median Observed Value (Baseline, ITT population): 118.0 mg/dL
- Triglycerides Median Observed Value (Baseline, ITT population): 216.5 mg/dL
- hsCRP Median Observed Value (Baseline, ITT population): 2.2 mg/L
- LDL-C derived Median Observed Value (Last Visit, ITT population): 77.0
- Triglycerides Median Absolute Change from Baseline (Last Visit, ITT population): 45.0 mg/dL
- LDL-C derived Between Group Difference Median % Change from Baseline [1]: −6.6%
- LDL-C derived Between Group Difference Median Absolute Change from Baseline [1]: −5.0
- HDL-C, median (Year 1): 39.0 mg/dL
- LDL-C, median (Year 1): 77.0 mg/dL
- HDL-C, median between group difference, % change from baseline (Year 1, vs placebo): −6.3%
- HDL-C, median between group difference, absolute change from baseline (Year 1, vs placebo): -2.5 mg/dL
- LDL-C, median between group difference, % change from baseline (Year 1, vs placebo): −6.6%
- LDL-C, median between group difference, absolute change from baseline (Year 1, vs placebo): -5.0 mg/dL
- Triglycerides Between Group Difference Median Absolute Change from Baseline (Year 1, vs placebo, ITT population): 44.5 mg/dL
- Non-HDL-C Median Observed Value (Year 2, ITT population): 113.0 mg/dL
- Triglycerides Between Group Difference Median % Change from Baseline (Year 2, vs placebo, ITT population): −19.7%
- HDL-C Median Observed Value (Year 3, ITT population): 40.0 mg/dL
- Non-HDL-C Median Absolute Change from Baseline (Year 3, ITT population): 4.8 mg/dL
- Non-HDL-C Median % Change from Baseline (Year 4, ITT population): 4.2%
- Non-HDL-C Median % Change from Baseline (Year 5, ITT population): 4.4%
- Approximated LDL-C (Hopkins), median change from baseline (baseline to one year): -1.1 mg/dL
- Approximated LDL-C (Hopkins), median percent change from baseline (baseline to one year): −1.2%
- Triglycerides, median change from baseline (baseline to one year): -39.0 mg/dL
- Triglycerides, median percent change from baseline (baseline to one year): −18.3%
- Approximated LDL-C (Hopkins), median change from baseline [2]: -1.0 mg/dL
- Approximated LDL-C (Hopkins), median percent change from baseline [2]: −1.2%
- Triglycerides, median change from baseline [2]: -45.0 mg/dL
- Triglycerides, median percent change from baseline [2]: −21.6%
- Approximated LDL-C (Hopkins), median difference from placebo in percent change from baseline (last study value): −7.4%
- Triglycerides, greater reduction than in the placebo group (one year): 44.5 mg/dL
- Triglycerides, median reduction from baseline greater than in the placebo group (one year, Hodges-Lehmann approach): 19.7%
- Approximated LDL-C (Hopkins), median difference from placebo in percent change from baseline (one year): −11.4%
